“And” between values parts separate entries of the source, which are not always exact repeats. Equal entries are not always repeated. “Also recorded” adds a separate entry of the source. Where two headings read alike, the source gives them in different places.
How the values were obtained:
[1] = system: HIV-1 CA hexamer protein; test: Direct binding to hexameric HIV-1 CA via SPR; conditions: sensor chip immobilized CA hexamer
Description: A direct binding assay was established using SPR (surface plasmon resonance) (FIGS. 5-7). This assay allows for the confirmation that maintained target specificity is maintained, and the analysis of the kinetic signatures of newly synthesized compounds allows for prioritization of compounds for antiviral testing. […] Therefore, compounds with slower off-rates are prioritized for antiviral testing, as this characteristic should translate to increased potency. Additionally, the interaction of the next-generation compounds with CA proteins from clades A1, A2, B, C, and D (FIG. 11) was quantified. Hexameric versions of these constructs were developed, given their differential assembly properties, compared to the NL4-3 variant. This can be accomplished by modelling of the CA variants and mutation of residues (either A14C/E45C or A42C/T54C) between the N-terminal domains of adjacent subunits. Second, the cross-linked hexamers were prevented from polymerizing further into hyperstable capsid-like structures by mutations (W184A and M185A). The application of this to make hexameric capsomrs was first outlined in Pomillos et al. 2010. J. Mol. Biol. 401(5):985-95. The SPR analysis indicates a compound's potential performance in the therapeutic spectrum testing against other clades in the following sub-aim and provide a facile way in which to rank order compounds for antiviral testing.

[2] = system: cells utilized in each assay; test: Toxicity (CC50) evaluated with the cells utilized in the infection assay; format: cell-based; conditions: Table 2
Method: (§1) As used herein, the term “CC50” is the half-maximal cytotoxic concentration of a particular compound or agent.
(§2) The potency of compounds of Formula I was evaluated via single round and multicycle HIV-1 replication assays. The single round assay is used as the first level of potency testing. Compounds that display antiviral activity equal to or greater than PF-74 in the primary assay are quantified in the multicycle HIV-1 assays. The multicycle HIV-1 replication assay uses primary isolates and primary human peripheral blood mononuclear cells (PBMCs). Toxicity is evaluated simultaneously with the cells utilized in each assay to allow determination of the therapeutic index (TI=CC50/IC50) of each compound. HIV-1 replication assays are performed in primary PBMCs such as described in Kortager, et al., 2012, J Virol. 86(16):8472-8481, Zentner, et al., 2013, ChemMedChem. 8(3):426-432 and Zentner, et al., 2013, Bioorg Med Chem Lett. 2013; 23(4): 1132-1135.

[3] = system: HIV-1; test: microbe, parasite or virus in culture
Method: as §2, with “Compounds that display antiviral activity equal to or greater than PF-74 in the primary assay are quantified in the multicycle HIV-1 assays.” left out

[4] = Metabolic stability in human liver microsomes
Method: The compounds were also assessed in human liver microsomal stability assays, plasma protein binding, aqueous solubility (pH 7.4), and evaluation of permeability using the Caco-2 assay.
Analysis in silico of the drug-like properties of the compounds generated in this study is used to drive compound selection. Physicochemical properties (log S, log P, etc.) of all of the new scaffolds are evaluated and compared to PF-74 using StarDrop (Optibrium, UK). The likelihood of metabolism of our new scaffolds, as compared to PF-74, by the common CYP P450 isoforms, was assessed using StarDrop and its P450 module (www dot optibrium dot com/stardrop/stardrop-p450-models dot php). StarDrop's P450 models use quantum mechanical calculations of the activation energy for hydrogen abstraction or direct oxidation, based on the semi-empirical AMi method. These are combined with ligand-based models of the steric and orientation effects of the binding pockets of each P450 isoform on the accessibility of each potential site of metabolism. This total analysis results in predictions of the regioselectivity of metabolism and the lability of each site, a measure of the efficiency of product formation—both important factors governing the rate of metabolism. Compounds of Formula I identified herein that meet the criteria for potency and cytotoxicity are evaluated in in vitro ADME assays (FIG. 8). Specifically, we use microsomal stability and plasma protein binding assessment as reliable indicators of clearance and half-life in vivo. Aqueous solubility is evaluated because low solubility or stability in assay media is detrimental to the development of sound structure-activity-relationships. Low solubility can also hamper our ability to formulate analogs for future in vivo studies. A Caco-2 assay is used to assess cell permeability issues.
T1/2 is the liver microsomal half-life, CLint, CLapp, and CLh are pharmacokinetic clearance parameters.

[5] = Toxicity (CC50) evaluated with the cells utilized in the infection assay; format: cell-based; conditions: Table 2
Method: as §1, §2

[6] = inhibition of HIV-1 in the early stages of replication, Table 2
[7] = racemates and (R)/(S) enantiomers, Table 4
[8] = human liver microsomal stability assay, compared to PF-74
[9] = liver microsomal half-life, Table 3
[10] = metabolic stability of racemates and (R)/(S) enantiomers, Table 5
[11] = human liver microsomes, Table 1
[12] = human, liver microsomes, T1/2, liver microsomal half-life, Table 3
[13] = human, liver microsomes, T1/2, metabolic stability of racemates and (R)/(S) enantiomers, Table 5

In the case of `CN(C(=O)C(Cc1ccccc1)NC(=O)Cc1n[nH]c2c(N)cccc12)c1ccccc1` (centres unmarked) [Compound C4], the “binding to HIV-1 CA hexamer (in words)” value [1] is reported as “interacts with the CA hexamer similarly to PF-74; also recorded: higher affinity”, the CC50 [2] is reported as 284 ± 0.2 µM and the “increase in the therapeutic index (CC50/IC50) over PF-74” value ([3]; compared to PF-74) is reported as “over 7 fold”. For the same molecule, the IC50 [3, 6] was 0.0515 ± 0.0184 µM, the IC50 [3, 7] was 0.0515 ± 0.0184 µM and the “Therapeutic index (CC50/IC50)” value [3, 7] was 5515. For the same molecule, the “improvement in metabolic stability over PF-74” value (shortened to “improvement … over PF-74”) [4, 8] was 34 fold and 30 fold, the T1/2 [4, 9] was 20 min and the CLapp ([4]; liver microsomes, Table 3) was 4.0276 L/h/kg. For the same molecule, the CLh ([4]; liver microsomes, Table 3) was 0.92454 L/h/kg, the CLint ([4]; liver microsomes, Table 3) was 69.6 µL/min/mg and the Eh ([4]; liver microsomes, Table 3) was 77. It also gave a k ([4]; liver microsomes, Table 3) of 0.03481 and a T1/2 [4, 10] of 20 min.
In the case of `Cc1[nH]c2ccc(S(=O)(=O)F)cc2c1CC(=O)NC(Cc1ccccc1)C(=O)N(C)c1ccc2cn[nH]c2c1` (centres unmarked) [Compound C13], the “binding to HIV-1 CA hexamer (in words)” value [1] is reported as “even more potent binding than (S)-C11”, the IC50 ([3]; Human immunodeficiency virus 1, 24 h, read-out: 24 h post-infection IC50) is reported as 0.0231 ± 0.00429 µM and the IC50 ([3]; Human immunodeficiency virus 1, 48 h, read-out: 48 h post-infection IC50) is reported as 0.0239 ± 0.00324 µM. It also gave an IC50 ([3]; Human immunodeficiency virus 1, 72 h, read-out: 72 h post-infection IC50) of 0.0291 ± 0.00567 µM.
With `Cc1[nH]c2ccccc2c1CC(=O)N[C@H](Cc1ccccc1)C(=O)N(C)c1ccccc1` [(R)-PF-74, reference compound] the T1/2 ([4]; human, microsomes) was 0.6 min.
With `Cc1[nH]c2ccccc2c1CC(=O)N[C@@H](Cc1ccccc1)C(=O)N(C)c1ccccc1` [PF-74, reference compound] the “binding to HIV-1 CA hexamer (in words)” value [1] was “higher affinity”, the CC50 [2] was 73 ± 15 µM and the IC50 [3, 6] was 0.0951 ± 0.0317 µM. The IC50 [3, 7] was 0.0951 ± 0.0317 µM, the “Therapeutic index (CC50/IC50)” value [3, 7] was 768 and the CLapp [4, 11] was 134.9656 L/h/kg. For the same molecule, the CLint [4, 11] was 2332.7 µL/min/mg, the Clh [4, 11] was 1.1894 L/h/kg and the Eh [4, 11] was 99.12%. For the same molecule, the T1/2 [4, 11] was 0.59 min, the k [4, 11] was 1.166 and the “metabolic lability (in words)” value [4, 11] was “highly metabolically labile”. For the same molecule, the T1/2 [4, 9] was 0.6 min, the CLapp ([4]; liver microsomes, Table 3) was 134.9656 L/h/kg and the CLh ([4]; liver microsomes, Table 3) was 1.1894 L/h/kg. It also gave a CLint ([4]; liver microsomes, Table 3) of 2332.7 µL/min/mg, an Eh ([4]; liver microsomes, Table 3) of 99.12 and a k ([4]; liver microsomes, Table 3) of 1.166. The T1/2 [4, 10] was 0.6 min.
For `Cc1[nH]c2ccccc2c1CC(=O)NC(Cc1ccccc1)C(=O)N(C)c1ccc2[nH]ncc2c1` (centres unmarked) [Compound C11], the CC50 [5] was 366 ± 29 µM, the IC50 ([3]; Human immunodeficiency virus 1) was 0.173 ± 0.058 µM and the “Therapeutic index (CC50/IC50)” value [3, 7] was 2115. The “improvement … over PF-74” value [4, 8] was 34 fold, the microsomal CLint ([4]; human, liver microsomes) was 78.7 µL/min/mg and the half-life [4, 12] was 18 min. For the same molecule, the half-life [4, 13] was 17.6 min, the CLapp ([4]; liver microsomes, Table 3) was 4.552 L/h/kg and the CLh ([4]; liver microsomes, Table 3) was 0.94968 L/h/kg. It also gave an Eh ([4]; liver microsomes, Table 3) of 79.1 and a k ([4]; liver microsomes, Table 3) of 0.03934.
`C[C@]12CC[C@H]3[C@@H](CCC4=CC(=O)CC[C@@]43C)[C@@H]1CC[C@@H]2O` [Testosterone, reference compound] showed a CLapp [4, 11] of 4.4575 L/h/kg, a Clh [4, 11] of 0.94548 L/h/kg and a CLapp ([4]; liver microsomes, Table 3) of 4.4575 L/h/kg. The CLh ([4]; liver microsomes, Table 3) was 0.94548 L/h/kg.
In the case of `CC(C)c1nc2c(n1CC(=O)NC(Cc1ccccc1)C(=O)N(C)c1ccccc1)CCCC2` (centres unmarked) [CX03], the “binding to HIV-1 CA hexamer (in words)” value [1] is reported as “relatively low-affinity”, the “reduction in potency relative to PF-74” value ([3]; compared to PF-74) is reported as 10 fold and the “improvement … over PF-74” value ([4]; human, microsomes) is reported as 4 fold.
For `CN(C(=O)C(Cc1ccccc1)NC(=O)Cc1n[nH]c2c(N)cccc12)c1ccc2[nH]ncc2c1` (centres unmarked) [Compound C12], the CC50 [5] was 183 ± 15 µM, the IC50 ([3]; Human immunodeficiency virus 1) was 0.302 ± 0.167 µM and the “Therapeutic index (CC50/IC50)” value [3, 7] was 606. The “improvement … over PF-74” value [4, 8] was 118 fold, the microsomal CLint ([4]; human, liver microsomes) was 19.5 µL/min/mg and the half-life [4, 12] was 71 min. It also gave a half-life [4, 13] of 71 min, a CLapp ([4]; liver microsomes, Table 3) of 1.1291 L/h/kg and a CLh ([4]; liver microsomes, Table 3) of 0.5818 L/h/kg. The Eh ([4]; liver microsomes, Table 3) was 48.5 and the k ([4]; liver microsomes, Table 3) was 0.00976.
With `Cc1[nH]c2ccccc2c1CC(=O)N[C@@H](Cc1ccccc1)C(=O)N(C)c1ccccc1` [(S)-PF-74, reference compound] the IC50 [3, 7] was 0.08 ± 0.0057 µM, the “Therapeutic index (CC50/IC50)” value [3, 7] was 3075 and the T1/2 ([4]; human, microsomes) was 0.5 min.
Work on `CC(=O)CC(c1ccccc1)c1c(O)c2ccccc2oc1=O` (centres unmarked) [Warfarin, reference compound] yielded a k ([4]; human) of −0.00509.
